Results reported in patent publication US20220119399A1, “COMPOUNDS AND COMPOSITIONS THAT CAUSE MYCN AND/OR CMYC DEGRADATION AND METHODS OF USE THEREOF” (THE TRUSTEES OF COLUMBIA UNIVERSITY IN THE CITY OF NEW YORK, priority 2018, published 2022).
Entries after “also recorded” stand apart in the source; their conditions may differ. Where a SMILES comes first, the peptide text is derived from it. The star is where a group is joined. Cbz = O=C(OCc1ccccc1)*

What was measured:
MYCN MR signature = experiment: RNASeq with VIPER analysis of the MYCN MR signature; assay type: cell-based, human; details: SK-N-Be2 cells; listed as dimethyl pomiferin
Procedure: (§1) To uncover changes in gene expression that underpin responses to pomiferin and isopomiferin, RNASeq analysis of SK-N-Be2 cells was performed following treatment with the two active prenylated isoflavonoids as well as a null analog that served as a negative control. SK-N-Be2 cells were treated with either 3 μM or 10 μM of isopomiferin or pomiferin and sampled after 3 h and 6 h. […] By comparing the active to the null analogs, downstream analyses can focus on changes in gene expression associated with the MYCN signature.
Intriguingly, only six MRs were suppressed by pomiferin and isopomiferin, while being unaffected by the null analog dimethyl pomiferin (FIG. 20B).

MYCN transcript = experiment: RNASeq analysis of SK-N-Be2 cells, MYCN transcript; assay type: cell-based, human; details: 3 μM or 10 μM, 3 h and 6 h
Procedure: as §1

SK-N-Be2 cells [1] = experiment: Cell viability assay (CellTiterGlo) in SK-N-Be2 cells; assay type: cell-based, human; details: for IC20: determined empirically
TEAD4 transcript = experiment: RNASeq analysis of SK-N-Be2 cells, TEAD4 transcript; assay type: cell-based, human; details: 3 μM or 10 μM, 3 h and 6 h
Procedure: as §1

[2] = test system: Histone H3 phosphorylation; experiment: Histone H3 phosphorylation western blot; assay type: cell-based; details: 1 μM
From the text: Membranes were blocked using Odyssey Blocking Buffer (LI-COR) for 1 hr at room temperature. […] Primary antibodies used in these studies include: MycN (CST; 1:500 dilution), Actin (SCBT; 1:2000 dil.), cMYC (CST; 1:500 dil.), pAKT (S473; CST; 1:500 dil.), AKT (CST; 1:2000), pP70 (T389; CST; 1:1000) P70 (CST; 1:1000).
We also compared the potency of these drugs against a recently developed AurKA inhibitor that acts by disrupting protein confirmation rather than simply blocking the protein:protein interaction site as alisertib does.

[3] = Metabolic stability in mouse liver microsomes; assay type: in vitro ADME; details: 2 h incubation, positive control
Procedure: Mouse liver microsomes (Xenotech) were diluted to 0.5 mg/mL in a solution containing 100 mM PBS buffer at 7.4 pH, an NADPH regenerating system (Promega), and test compounds at 20 μM. The mixture was incubated at 37° C. under gentle rotation for the indicated time points. The reaction was quenched by aliquoting 15 μL of solution into 60 μL ice-cold acetonitrile containing an internal standard. Test compounds were quantified by LC-MS using a system comprised of a Thermo Scientific Dionex Ultimate 3000 and a Bruker amaZon SL equipped with an electrospray ionization source controlled by a Bruker Hystar 3.2. Compounds were separated by injecting 20 μL of sample onto an Agilent Eclipse Plus C18 column (2.1×50 mm, […]) maintained at 20° C., with the flow rate set at 400 μL/min. Initial flow conditions were 60% solvent A (MilliQ H2O, 0.1% acetic acid), and 40% solvent B (HPLC-grade MeOH, 0.1% acetic acid). Solvent B was raised to 60% over 0.25 min and to 70% by 6.75 min. Solvent B was raised to 95% by 7 min and lowered back to 40% by 8 minutes; total run time was 9 min.

CK2a1 = target: T1, CK2a1 (Homo sapiens, UniProt P68400); experiment: Cell-free biochemical CK2a1 kinase assay
T1 construct: purchased Reaction Biology Corporation (Malvern, Pa.)
Procedure: Cell-free biochemical kinase assays were performed at Reaction Biology Corporation (Malvern, Pa.). In brief, kinase substrates were diluted into reaction buffer containing 20 mM Hepes (pH 7.5), 10 mM MgCl2, 1 mM EGTA, 0.02% Brij35, 0.02 mg/ml BSA, 0.1 mM Na3VO4, 2 mM DTT, 1% DMSO. Purified protein (CK2a1, CK2a2, or mTOR) was added to the substrate solution and gently mixed. Test compounds were diluted from 10 mM DMSO stock solutions into the reaction buffer using an Echo550 acoustic dispenser, followed by incubation at RT for 20 min. 33P-ATP (10 μCi/μL) was added to reaction mixture, following incubation for 2 h at RT. Reactions were then spotted onto P81 ion exchange paper and kinase activity was detected by filter binding method.

mutant isoform of CK2a1 = experiment: Cell viability after expression of mutant CK2a1 isoform; details: versus GFP-expressing plasmid
SK-N-Be2 cells [4] = assay type: in vitro ADME, human
Procedure: In brief, SK-N-Be2 cells were seeded at 400 k cells/well in 6 w plates and incubated overnight. The following day, compounds were added to wells at indicated concentrations, with DMSO-only control added to non-treated wells. Following treatment for the indicated time periods, cells were trypsinized, rinsed twice with cold PBS to remove media, pelleted by centrifugation, and frozen at −20° C. To extract compounds, frozen pellets were resuspended in 150 μL of acetonitrile, sonicated for 2′, and centrifuged at 1400×g for 75′ at 4° C. Supernatant was collected and analyzed by LC-MS using a system comprised of a Thermo Scientific Dionex Ultimate 3000 and a Bruker amaZon SL equipped with an electrospray ionization source controlled by a Bruker Hystar 3.2. Compounds were separated by injecting 20 μL of supernatant onto an Agilent Eclipse Plus C18 column (2.1×50 mm, […]) maintained at 20° C., with the flow rate set at 400 μL/min. Initial flow conditions were 60% solvent A (MilliQ H2O, 0.1% acetic acid), and 40% solvent B (HPLC-grade MeOH, 0.1% acetic acid). Solvent B was raised to 60% over 0.25 min and to 70% by 6.75 min. Solvent B was raised to 95% by 7 min and lowered back to 40% by 8 minutes; total run time was 9 min (Bos et al. 2019).

[5] = test system: MycN^AMP regulatory module (Master Regulators, TCM); experiment: PLATE-Seq with VIPER analysis: reversion of the MycN^AMP master regulator module; assay type: cell-based, human; details: SK-N-Be2 cells, IC20, 24 hrs
From the text: Reads were mapped against the human reference genome version Grch38 using the STAR aligner, and used the variance stabilizing transformation from the DESeq2 package for R to normalize each plate. Next, we corrected for batch effect due to having compounds replicates on separate plates. We used the function combat from the sva package for R to compute the batch-corrected normalized gene expression, and fitted a linear model for each compound against the set of DMSO controls on each plate (6 wells per plate per DMSO-treated cells). We used the limma package for R to fit the linear model and to compute p-values and moderated t-statistics for each gene. For each compound, we used a vector of these statistics to generate a gene expression profile of z-scores representing the compound effect as differential between post- and pre-treatment.
Each compound gene expression profile was analyzed using the VIPER algorithm (Alvarez et al. 2016) with TARGET and NRC NBL interactomes, reverse-engineered as described in (Rajbhandari et al. 2018), resulting in two protein activity profiles for each compound that were integrated using Stouffer's z-score method.

mTOR = mTOR (Homo sapiens, UniProt P42345); details: Bajer et al. 2014; cited from earlier work
[6] = Homo sapiens, SKNBE2, SK-N-Be2 cells

T1 sequence (P68400 whole entry): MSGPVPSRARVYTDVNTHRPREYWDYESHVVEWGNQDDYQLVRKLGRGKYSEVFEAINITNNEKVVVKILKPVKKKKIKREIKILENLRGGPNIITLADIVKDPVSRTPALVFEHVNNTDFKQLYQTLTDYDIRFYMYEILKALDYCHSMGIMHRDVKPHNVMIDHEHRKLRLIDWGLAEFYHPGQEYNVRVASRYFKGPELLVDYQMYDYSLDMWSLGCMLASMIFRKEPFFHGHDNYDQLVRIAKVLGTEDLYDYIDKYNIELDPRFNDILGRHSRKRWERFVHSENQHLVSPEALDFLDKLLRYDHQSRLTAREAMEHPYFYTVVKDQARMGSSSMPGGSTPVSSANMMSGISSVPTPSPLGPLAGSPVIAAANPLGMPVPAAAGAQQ

## COc1ccc(-c2coc3c4c(c(CC=C(C)C)c(O)c3c2=O)OC(C)(C)C=C4)cc1OC [pomiferin dimethyl ether, 3-(3,4-dimethoxyphenyl)-5-hydroxy-8,8-dimethyl-6-(3-methylbut-2-en-1-yl)-4H,8H-pyrano[2,3-f]chromen-4-one]
MYCN MR signature
  effect on the MYCN MR signature (VIPER of RNASeq): does not revert the MYCN signature; also recorded: did not
MYCN transcript
  MYCN transcript abundance (RNASeq): did not affect either MYCN or TEAD4
SK-N-Be2 cells [1]; SK-N-Be2 cells, 72 hrs
  inhibition of SK-N-Be2 cell viability (rank or activity in words): inactivity at 20 μM
TEAD4 transcript
  TEAD4 transcript (RNASeq): did not affect either MYCN or TEAD4

## OC(c1cc(-c2ccc(C(F)(F)F)cc2)nc(C(F)(F)F)c1)C1CCCCN1 (stereo not shown) [NSC305798]
SK-N-Be2 cells [1]; SK-N-Be2 cells
  IC20: 5 µM

## CN(C)c1ccc2nc3ccc(=[N+](C)C)cc-3sc2c1 [Methylene Blue]
[2]
  Histone H3 phosphorylation: inhibit Histone H3 phosphorylation
SK-N-Be2 cells [1]; [6]
  IC20: 2 µM

## CCOc1ccc2ccc(=O)oc2c1 [7-ethoxycoumarin, reference compound]
[3]
  metabolism by mouse liver microsomes: metabolized across the duration of the assay

## CC[C@@H](C(=O)O)[C@@H]1O[C@@H]([C@@H](C)[C@H](O)[C@H](C)C(=O)[C@H](CC)[C@H]2O[C@]3(C=C[C@@H](O)[C@]4(CC[C@@](C)([C@H]5CC[C@](O)(CC)[C@H](C)O5)O4)O3)[C@H](C)C[C@@H]2C)[C@@H](C)C[C@@H]1C [Narasin]
SK-N-Be2 cells [1]; [6]
  IC20: 1 µM

## CN(C)c1ccc2nc3ccc(N)cc3[s+]c2c1.[Cl-] [Azure A]
[2]
  Histone H3 phosphorylation: inhibit Histone H3 phosphorylation
SK-N-Be2 cells [1]; SK-N-Be2 cells
  IC20: 1 µM

## CC(=O)[C@@]1(O)[C@H](C)C[C@H]2[C@@H]3C=C(C)C4=Cc5c(cnn5-c5ccccc5)C[C@]4(C)[C@H]3[C@@H](O)C[C@@]21C [NSC80997]
SK-N-Be2 cells [1]; SK-N-Be2 cells
  IC20: 7.5 µM

## O=C(O)c1ccc2c(c1)nc(Nc1cccc(Cl)c1)c1ccncc12 [CX-4945]
CK2a1
  CK2a1 kinase activity: completely inhibited kinase activity of CK2a at all concentrations tested
Mutant isoform of CK2a1
  resistance conferred by mutant CK2 isoform: modest resistance
SK-N-Be2 cells [4]
  cell permeability: poor cell permeability
SK-N-Be2 cells [4]; human, 20 μM
  amount of compound detected in cell sample: 2.2 ng

## COc1c(C)c2c(c(O)c1C/C=C(\C)CCC(=O)O)C(=O)OC2 [Mycophenolic acid]
SK-N-Be2 cells [1]; [6]
  IC20: 2.5 µM

## c1ccc2c(c1)Nc1ccccc1S2 [phenothiazine]
[5]
  reversion of the MR regulatory module / TCM (VIPER of PLATE-Seq): does not revert the signature
SK-N-Be2 cells [1]; NBL cell lines, 48 hrs
  activity in NBL cells (cell viability): inactive in NBL

## COc1cc(Nc2ncc3c(n2)-c2ccc(Cl)cc2C(c2c(F)cccc2OC)=NC3)ccc1C(=O)O [alisertib]
[2]
  Histone H3 phosphorylation: inhibit Histone H3 phosphorylation
[5]
  reversion of the MR regulatory module / TCM (VIPER of PLATE-Seq): does not suppress the regulatory signature in the same way as isopomiferin

## CO[C@H]1/C=C\C=C(/C)C(=O)NC2=CC(=O)C(N)=C(C[C@@H](C)C[C@H](OC)[C@H](O)[C@@H](C)/C=C(\C)[C@@H]1OC(N)=O)C2=O [NSC255109]
SK-N-Be2 cells [1]; SK-N-Be2 cells
  IC20: 2.5 µM

## CC(=O)Oc1ccc(-c2coc3c4c(c(CC=C(C)C)c(OC(C)=O)c3c2=O)OC(C)(C)C=C4)cc1OC(C)=O [pomiferin triacetate, 4-(5-acetoxy-8,8-dimethyl-6-(3-methylbut-2-en-1-yl)-4-oxo-4H,8H-pyrano[2,3-f]chromen-3-yl)-1,2-phenylene diacetate]
mTOR
  mTOR activity and general kinase inhibition: can inhibit mTOR activity; also recorded: does not possess general kinase inhibition activity

## COc1cc([C@@H]2c3cc4c(cc3[C@H](O)[C@H]3COC(=O)[C@H]23)OCO4)cc(OC)c1OC [Podofilox]
SK-N-Be2 cells [1]; [6]
  IC20: 1 µM

## COc1cccc2c1C(=O)c1c(O)c3c(c(O)c1C2=O)C[C@@](O)(C(=O)CO)C[C@@H]3O[C@H]1C[C@H](N)[C@H](O)[C@H](C)O1 [doxorubicin]
[5]
  reversion of the MR regulatory module / TCM (VIPER of PLATE-Seq): induced spurious effects

## c1ccc(-c2cccc(-c3ccccn3)n2)nc1 [NSC3905]
SK-N-Be2 cells [1]; SK-N-Be2 cells
  IC20: 3 µM

## Oc1ccc(Cl)c2cccnc12 [Cloxyquin]
SK-N-Be2 cells [1]; [6]
  IC20: 5 µM

## CC(C)C[C@@H](C=O)NC(=O)[C@H](CC(C)C)NC(=O)[C@H](CC(C)C)NC(=O)OCc1ccccc1 [MG132] (Cbz-Leu-Leu-Leu-aldehyde)
Mutant isoform of CK2a1
  resistance conferred by mutant CK2 isoform: no resistance was conferred by the plasmid
